Test results from patent publication US12503711B2, “Method of producing and processing diamines to a diamine free base using a carbonate intermediate and an engineered microorganism” (Genomatica, Inc., priority 2014, dated 2025).
“And” between values parts separate entries of the source, which are not always exact repeats. Identical values can stand only once. Like-named read-outs stand apart in the source and are kept apart here. Values belong to the molecule of their own block, whether it stands above or below them.

Key:
[1] = water solubility of the solvent used, cited from earlier work
[2] = Solvent extraction of HMD from aqueous feed (recovery, distribution coefficient, selectivity); assay type: physicochemical; conditions: for available free base HMD extracted: 1:1 solvent to feed ratio
Procedure: The example describes the solvent extraction of HMD from the CO2 stripped solution prepared in Example 3 above as well as extracting HMD from an aqueous solution without pH adjustment as a control for solvent performance. The following protocol was used in this example:
The pH of the aqueous feed was measured. In a 50 mL falcon tube, 20 g of solvent was mixed with 20 g of feed. This combination was further aggressively mixed in the falcon tube for 5 minutes and vortexed for 1 minute. The tube with the mixed solvent and feed was allowed to settle until phase separation was complete. The volume of the bottom, aqueous layer was recorded. A sample of the top layer was carefully pipetted out the top layer. A sample the bottom layer was also obtained and the pH of the bottom layer measured. The recovery, distribution coefficients and selectivity based on mass balance were calculated.
The extraction data for three solvents extracting HMD from water are set out in Table 4-1.

[3] = Regeneration of HMD free base from CO2-adjusted MM9 solution by air sparge and reflux; assay type: physicochemical; conditions: for CO2:HMD ratio: based on calculation from pH
Procedure: A 250 mL four-neck flask was fitted with a condenser, temperature probe, and air sparge needle. The system was open to air through the top of the condenser. The feed was an aqueous HMD solution in MM9 where pH was adjusted to 8.68 with CO2. The feed solution was analyzed for HMD concentration by LCMS and the pH was measured. The solution was sparged with air and refluxed at 85° C. for three hours. The resulting solution's pH was taken and the concentration of HMD measured by LCMS.
The concentration increased slightly as some water escaped through the condenser and the solution was concentrated. The fraction of HMD in free base form at pH 11.26 is 57%.

[4] = Simulated fermentation: CO2 and HMD fed into MM9 solution, pH monitored; assay type: physicochemical; conditions: average rate 3.31 g/L/hr
Excerpt: This example reports the results of a simulated fermentation process. Briefly, CO2 (approximately 98% pure) and HMD (70% HMD from Sigma Aldrich) were fed into an MM9 solution that had the following composition: • 0.68% (6.8 g/L) Disodium phosphate Na2HPO4 • 0.3% (3 g/L) Monopotassium phosphate KH2PO4 • 0.15%(1.5 g/L) Ammonium chloride NH4Cl • 0.1% (1 g/L) Ammonium sulfate (NH4)2SO4 • 0.05% (0.5 g/L) Sodium chloride NaCl
The measured pH of the solution and concentration of HMD added over time are set out in FIG. 30.
This feed rate used in this example corresponds to an average rate of 3.31 g/L/hr (a reasonable production rate in an industrial fermentation process). The final titer and feed concentration of HMD was confirmed by LCMS. The HMD and CO2 reach a dynamic equilibrium around pH 8.5. As more HMD is added, more CO2 is absorbed. The simulated HMD:CO2 ratio is 1.95 for pH=8.53. […] FIGS. 31 and 32 illustrate the relative concentration of species as a function of pH for HMD and H2CO3, respectively.
At pH 8.5 (dashed, black line) the major species in solution are the diprotonated HMD and bicarbonate. A minority presence of HMD-carbamate may be present as well.

[5] = HMD/CO2 pH equilibrium under changing conditions (CO2 sparge, air sparge, heat); assay type: physicochemical; conditions: for pH (temp. in ° C.): 10% w/w aqueous HMD solution
Procedure: This experiment illustrates HMD/CO2 pH equilibrium under changing conditions. In this example, a 10% w/w aqueous HMD solution was prepared (70% HMD purchased from Sigma Aldrich). The HMD solution was heated to 30° C. and initial pH recorded. Next, CO2 (approximately 98% pure) was bubbled into the solution for 60 min while monitoring pH. The CO2 sparge was stopped. Air was sparged into solution for 30 min while monitoring pH. […] The pH was measured by sampling 3 mL to a falcon tube and cooling to 30° C. […] The solution was cooled to 30° C. and a final pH recorded. The measured pH values are plotted in Graphs 1-1, 1-2 and 1-3, below. It was noted that the temperature probe on pH meter was reading 44.4° C. at […]. and cooled back down to 30° C. by the end of the 60 min. […] This temperature increase can also account for the nonlinearity in FIG. 27-29 because pH decreases with increasing temperature.
Extraction should be possible at this pH. Aeration during fermentation may be able to strip off some of the dissolved CO2.

[6] = HMD in DI water, [HMD] = 835 mM, 20 g solvent : 20 g feed
[7] = HMD in DI water, [HMD] = 835 mM, bottom aqueous layer after extraction, 20 g solvent : 20 g feed
[8] = HMD in deionized (DI) water, [HMD] = 835 mM, aqueous feed before extraction

SMILES: CCCCCCO [1-hexanol]
- % Solubility ([1]; Table 4-1): 0.59%
- % Solubility ([1]; Table 4-2): 0.59%

SMILES: OC1CCCCC1 [Cyclohexanol]
- % water in extract [2, 6]: 16.65%
- pH after [2, 7]: 12.36
- pH before [2, 8]: 12.70

- pH ([3]; Feed stream: HMD in MM9, pH adjusted with CO2, @ 21.7° C.): 8.68 @
- CO2:HMD ratio ([3]; Feed stream): 1.91
- pH ([3]; Product stream after air sparge and reflux at 85° C. for three hours, @ 23.5° C.): 11.26 @
- CO2:HMD ratio ([3]; Product stream): 0.277
- fraction of HMD in free base form ([3]; at pH 11.26): 57%
- pH after CO2 stripping ([3]; feed pH 8.68 in MM9, air sparge, reflux at 85° C for three hours): 11.26
- pH of dynamic equilibrium of HMD and CO2 [4]: ~8.5
- available free base HMD extracted ([2]; solvent 1-hexanol): approximately 43%
- available free base HMD extracted ([2]; solvent hexane): about 7%
- free base HMD available, based on the pH before extraction ([2]; stripped solution from Example 3): 60%
- pH restored by air and heat ([5]; 10% w/w aqueous HMD solution after 60 min CO2 bubbling, then air sparge and heating to 80-88° C, pH read at 30° C): 11.02
- pH (temp. in ° C.) ([5]; Heated to 80° C. for 30 min. w/ sparge, sample cooled to 30 °C): 10.49
- pH (temp. in ° C.) ([5]; Heated to 88° C. for 15 min. w/ sparge, pH at 22.5 °C): 11.02
- pH (temp. in ° C.) ([5]; Heated to 88° C. for 15 min. w/ sparge, pH at 30 °C): 10.76
- pH (temp. in ° C.) ([5]; House air sparge for 30 min. at 30° C., pH at 30 °C): 8.23
- pH (temp. in ° C.) ([5]; Initial conditions, pH at 30 °C): 12.25
- pH (temp. in ° C.) ([5]; Sat open to air over night, pH at 20.6 °C): 10.78
- pH (temp. in ° C.) ([5]; Sparge CO2 for 60 min. at 30° C., pH at 30 °C): 7.96
SMILES: NCCCCCCN [HMD, Hexamethylenediamine]

SMILES: CCCCCC [Hexane]
- % water in extract [2]: <0.001%
- pH after [2]: 12.54 and 11.42
- pH before [2]: 12.55 and 11.48
- % Solubility ([1]; Table 4-1): 9.4 × 10^−4%

- % water in extract [2, 6]: 9.08%
- pH after [2, 7]: 12.16
- pH before [2, 8]: 12.70
SMILES: CC(C)CCO [Isopentanol]
- % Solubility ([1]; Table 4-1): 2.8%
